# Test results taken from US6635459B1, “Nucleotide sequences encoding pinoresinol/lariciresinol reductase proteins and their methods of use” (Washington State University Research Foundation, priority 1996, dated 2003).
# B1: 35 kDa form of (+)-pinoresinol/(+)-lariciresinol reductase (Forsythia x intermedia) (protein)
# chain: GKSKVLIIGGTGYLGRRLVKASLAQGHETYILHRPEIGVDIDKVEMLISFKMQGAHLVSGSFKDFNSLVEAVKLVDVVISAISGVHIRSHQILLQLKLVEAIKEAGNVKRFLPSEFGMDPAKFMDTAMEPGKVTLDEKMVVRKAIEKAGIPFTYVSANCFAGYFLGGLCQFGKILPSRDFVIIHGDGNKKAIYNNEDDIATYAIKTINDPRTLNKTIYISPPKNILSQREVVQTWEKLIGKELQKITLSKEDFLASVKELEYAQQVGLSHYHDVNYQGCLTSFEIGDEEEASKLYPEVKYTSVEEYLKRYV
# notes: pure enzyme (after MonoQ anion-exchange chromatography); from tissue; host or cells: Forsythia intermedia stems
# B2: 36 kDa form of (+)-pinoresinol/(+)-lariciresinol reductase (Forsythia x intermedia) (protein)
# chain: GKSKVLIIGGTGYLGRRLVKASLAQGHETYILHRPEIGVDIDKVEMLISFKMQGAHLVSGSFKDFNSLVEAVKLVDVVISAISGVHIRSHQILLQLKLVEAIKEAGNVKRFLPSEFGMDPAKFMDTAMEPGKVTLDEKMVVRKAIEKAGIPFTYVSANCFAGYFLGGLCQFGKILPSRDFVIIHGDGNKKAIYNNEDDIATYAIKTINDPRTLNKTIYISPPKNILSQREVVQTWEKLIGKELQKITLSKEDFLASVKELEYAQQVGLSHYHDVNYQGCLTSFEIGDEEEASKLYPEVKYTSVEEYLKRYV
# B3: Dirigent protein: 78-kD protein purified from Forsythia intermedia stems that guides stereoselective coupling of E-coniferyl alcohol radicals to (+)-pinoresinol (protein)
# chain: MVSKTQIVALFLCFLTSTSSATYGRKPRPRRPCKELVFYFHDVLFKGNNYHNATSAIVGSPQWGNKTAMAVPFNYGDLVVFDDPITLDNNLHSPPVGRAQGMYFYDQKNTYNAWLGFSFLFNSTKYVGTLNFAGADPLLNKTRDISVIGGTGDFFMARGVATLMTDAFEGDVYFRLRVDINLYECW
# Assays:
# E-sinapyl alcohol = E-sinapyl alcohol coupling assay (oxidant with/without dirigent protein); assay type: biochemical, Forsythia intermedia; details: 6 hour assay
# Method: Investigation of Substrate-Specific Stereoselectivity. The coupling stereoselectivity was substrate specific. Neither E-p-[9-^3H]coumaryl (4 μmol ml^−1, 44.5 kBq) or E-[8-^14C]sinapyl alcohols (4 μmol ml^−1, 8.3 kBq), which differ from E-coniferyl alcohol only by a methoxyl group substituent on the aromatic ring, yielded stereoselective products when incubated for 6 hours with FMN and ammonium peroxydisulfate respectively, in the presence and absence of the dirigent protein. Incubations were carried out as described above with the following modifications: E-p-[9-^3H]coumaryl (4 μmol ml^−1, 44.5 kBq) or E-[8-^14C]sinapyl alcohols (4 μmol ml^−1, 8.3 kBq) were used as substrates and, after 6 hour incubation at 30° C., the reaction mixture was extracted with EtOAc but without addition of radiochemical carriers.
# E-coniferyl alcohol [1] = experiment: E-coniferyl alcohol coupling assay (oxidant with/without dirigent protein); assay type: biochemical, Forsythia intermedia; details: 6 hour assay
# Method: E-coniferyl alcohol coupling assay. E-[9-^3H]Coniferyl alcohol (4 μmol ml^−1, 29.3 kBq) was incubated with a 120-kD laccase (previously purified from Forsythia intermedia stem tissue) over a […], in the presence and absence of the dirigent protein, as follows. Each assay consisted of E-[9-^3H]coniferyl alcohol (4 μmol ml^−1, 29.3 kBq, 7.3 MBq mole liter^−1; or 2 μmol ml^−1, 14.7 kBq with fraction III), the 78-kD dirigent protein, an oxidase or oxidant, or both [final concentrations: 770 pmol ml^−1 dirigent protein; 10.7 pmol protein ml^−1 Forsythia laccase; 12 μg protein ml^−1 fraction III; 0.5 μmol ml^−1 FMN; 0.5 μmol ml^−1 FAD; 1 and 10 μmol ml^−1 ammonium peroxydisulfate] in buffer (0.1 M MES-HEPES-sodium acetate, pH 5.0) to a total volume of 250 μl. The enzymatic reaction was initiated by addition of E-[9-^3H]coniferyl alcohol. Controls were performed in the presence of buffer alone.
# After one hour incubation at 30° C. while shaking, the assay mixture was extracted with ethyl acetate (EtOAc, 500 μl) containing (±)-pinoresinols (7.5 μg), (±)-dehydrodiconiferyl alcohols (3.5 μg) and erythro/threo (±)-guaiacylglycerol 8-O-4′-coniferyl alcohol ethers (7.5 μg) as radiochemical carriers and ferulic acid (15.0 μg) as an internal standard. After centrifugation (13,800 g, 5 min), the EtOAc soluble components were removed and the extraction procedure repeated with EtOAc (500 μl). The EtOAc soluble components from each assay were combined, the solutions evaporated to dryness in vacuo, redissolved in methanol-water solution (1:1; 100 μl) with an aliquot (50 μl) thereof subjected to reversed-phase column chromatography (Waters, Nova-Pak C18, 150 mm by 3.8 mm). The elution conditions were as follows: acetonitrile/3% acetic acid in H2O (5:95) from 0 to 5 min, then linear gradients to ratios of 10:90 between 5 and 20 min, then to 20:80 between 20 and 45 min and finally to 50:50 between 45 and 60 min, at a flow rate of 8.8 ml min^−1 cm^−2.
# Fractions corresponding to E-coniferyl alcohol, erythro/threo (±)-guaiacylglycerol 8-O-4′-coniferyl alcohol ethers, (±)-dehydrodiconiferyl alcohols and (±)-pinoresinols were individually collected, aliquots removed for liquid scintillation counting, and the remainder freeze-dried. Pinoresinol-containing fractions were redissolved in methanol (100 μl) and subjected to chiral column chromatography (Daicel, Chiralcel OD, 50 mm by 4.6 mm) with a solution of hexanes and ethanol (1:1) as the mobile phase (flow rate 3 ml min^−1 cm^−2), whereas dehydrodiconiferyl alcohol fractions were subjected to Chiralcel OF (250 mm by 4.6 mm) column chromatography eluted with a solution of hexanes and isopropanol (9:1) as the mobile phase (flow rate 2.4 ml min^−1 cm^−2), the radioactivity of the eluent being measured with a flow-through detector (Radiomatic, Model A120).
# Ammonium peroxydisulfate readily undergoes homolytic cleavage (A. Usaitis, R. Makuska, Polymer 35:4896 (1994)) and is routinely used as an one-electron oxidant in acrylamide polymerization. Ammonium peroxydisulfate was first incubated with E-[9-^3H]coniferyl alcohol (4 μmol ml^−1, 29.3 kBq) for 6 hours using the E-coniferyl alcohol coupling assay procedure described above.
# E-coniferyl alcohol [2] = experiment: Kinetic characterization of conversion of E-coniferyl alcohol to (+)-pinoresinol with dirigent protein and oxidase/oxidant; assay type: biochemical, Forsythia intermedia; details: (+)-pinoresinol formation from E-coniferyl alcohol, dirigent protein 770 pmol ml^−1 alone or with Fraction III 12 μg protein ml^−1, laccase 2.07 pmol ml^−1, FMN 0.5 μmol ml^−1; for Km: read-out: Formal Km
# Method: Assays were carried out as described in Example 3 by incubating a series of E-[9-^3H]coniferyl alcohol concentrations (between 8.00 and 0.13 μmol ml^−1, 7.3 MBq mole literl) with dirigent protein (770 pmol ml^−1) alone and in presence of Forsythia laccase (2.1 pmol ml^−1), fraction III (12 μg protein ml^−1), or FMN (0.5 μmol ml^−1). Assays with dirigent protein, in presence or absence of FMN, were incubated at 30° C. for 1 hour, whereas assays with Forsythia laccase or fraction III in presence or absence of dirigent protein were incubated at 30° C. for 15 min. If free-radical capture by the dirigent protein is the operative mechanism, the Michaelis-Menten parameters obtained will only represent formal rather than true values, because the highest free-energy intermediate state during the conversion of E-coniferyl alcohol into (+)-pinoresinol is still unknown and the relation between the concentration of substrate and that of the corresponding intermediate free-radical in open solution has not been delineated.
# Bearing these qualifications in mind, we estimated formal Km and Vmax values for the dirigent protein preparation.
# HIV = details: cited from earlier work
# [3] = substrate: COc1cc(C[C@H]2CO[C@H](c3ccc(O)c(OC)c3)[C@H]2CO)ccc1O; experiment: Initial velocity studies, reductase 35 kDa isoform; assay type: biochemical, Forsythia intermedia; details: other: 35 kDa form of the enzyme, NADPH 80 μM, pH 7.4, 30° C.
# Method: Kinetic Parameters. […] The initial velocity studies were carried out individually utilizing the two isoforms of the enzyme, and individually employing both (+)-pinoresinol and (+)-lariciresinol as substrates. Initial velocity studies were performed in triplicate experiments, using 50 mM Bis-Tris Propane buffer, pH 7.4 containing 5 mM dithiothreitol, pure enzyme (after MonoQ anion-exchange chromatography), ten different substrate concentrations (between 8.8 and 160 μM) at a constant NADPH concentration (80 μM). Incubations were carried out at 30° C. for 10 min (within the linear kinetic range). Kinetic parameters were determined from Lineweaver-Burk plots.
# [4] = substrate: COc1cc(C[C@H]2CO[C@H](c3ccc(O)c(OC)c3)[C@H]2CO)ccc1O; experiment: purified protein, by the assay type; details: other: 36 kDa form of the enzyme, NADPH 80 μM, pH 7.4, 30° C.
# E-coniferyl alcohol [5] = experiment: (+)-Pinoresinol-forming activity from E-[9-3H]coniferyl alcohol; assay type: biochemical, Forsythia intermedia
# [6] = dirigent protein absent, FMN 0.5 μmol ml^−1 or ammonium peroxydisulfate 10 μmol ml^−1
# [7] = dirigent protein present (770 pmol ml^−1), FMN 0.5 μmol ml^−1 or ammonium peroxydisulfate 10 μmol ml^−1
# [8] = ammonium peroxydisulfate 1 μmol ml^−1, dirigent protein absent
# [9] = ammonium peroxydisulfate 1 μmol ml^−1, dirigent protein present (770 pmol ml^−1)
# [10] = ammonium peroxydisulfate 10 μmol ml^−1, dirigent protein absent
# [11] = ammonium peroxydisulfate 10 μmol ml^−1, dirigent protein present (770 pmol ml^−1)
# [12] = dirigent protein (770 pmol ml^−1) alone, no added oxidant
molecule,measurement,setting,value
N.N.O=S(=O)(O)OOS(=O)(=O)O [Ammonium peroxydisulfate],E-Sinapyl alcohol in dimer equivalents depleted,E-sinapyl alcohol; [6],1400 ± 120 nmol/mL
same,Racemic (±)-syringaresinols,E-sinapyl alcohol; [6],1020 ± 40 nmol/mL
same,E-Sinapyl alcohol in dimer equivalents depleted,E-sinapyl alcohol; [7],1520 ± 10 nmol/mL
same,Racemic (±)-syringaresinols,E-sinapyl alcohol; [7],1060 ± 30 nmol/mL
same,(+)-Pinoresinol,E-coniferyl alcohol [1]; [8],0 nmol/mL
same,(±)-Dehydro-diconiferyl alcohols,E-coniferyl alcohol [1]; [8],35 ± 2 nmol/mL
same,(±)-Guaiacyl-glycerol 8-O-4′-coniferyl alcohol ethers,E-coniferyl alcohol [1]; [8],10 ± 1 nmol/mL
same,(±)-Pinoresinols,E-coniferyl alcohol [1]; [8],16 ± 0 nmol/mL
same,E-Coniferyl alcohol in dimer equivalents depleted,E-coniferyl alcohol [1]; [8],200 ± 4 nmol/mL
same,Total dimers,E-coniferyl alcohol [1]; [8],61 ± 3 nmol/mL
same,(+)-Pinoresinol,E-coniferyl alcohol [1]; [9],130 ± 10 nmol/mL
same,(±)-Dehydro-diconiferyl alcohols,E-coniferyl alcohol [1]; [9],13 ± 1 nmol/mL
same,(±)-Guaiacyl-glycerol 8-O-4′-coniferyl alcohol ethers,E-coniferyl alcohol [1]; [9],6 ± 0 nmol/mL
same,(±)-Pinoresinols,E-coniferyl alcohol [1]; [9],0 nmol/mL
same,E-Coniferyl alcohol in dimer equivalents depleted,E-coniferyl alcohol [1]; [9],250 ± 55 nmol/mL
same,Total dimers,E-coniferyl alcohol [1]; [9],149 ± 11 nmol/mL
same,(+)-Pinoresinol,E-coniferyl alcohol [1]; [10],0 nmol/mL
same,(±)-Dehydro-diconiferyl alcohols,E-coniferyl alcohol [1]; [10],250 ± 10 nmol/mL
same,(±)-Guaiacyl-glycerol 8-O-4′-coniferyl alcohol ethers,E-coniferyl alcohol [1]; [10],90 ± 4 nmol/mL
same,(±)-Pinoresinols,E-coniferyl alcohol [1]; [10],135 ± 4 nmol/mL
same,E-Coniferyl alcohol in dimer equivalents depleted,E-coniferyl alcohol [1]; [10],860 ± 30 nmol/mL
same,Total dimers,E-coniferyl alcohol [1]; [10],475 ± 17 nmol/mL
same,(+)-Pinoresinol,E-coniferyl alcohol [1]; [11],450 ± 10 nmol/mL
same,(±)-Dehydro-diconiferyl alcohols,E-coniferyl alcohol [1]; [11],90 ± 3 nmol/mL
same,(±)-Guaiacyl-glycerol 8-O-4′-coniferyl alcohol ethers,E-coniferyl alcohol [1]; [11],30 ± 1 nmol/mL
same,(±)-Pinoresinols,E-coniferyl alcohol [1]; [11],0 nmol/mL
same,E-Coniferyl alcohol in dimer equivalents depleted,E-coniferyl alcohol [1]; [11],1030 ± 25 nmol/mL
same,Total dimers,E-coniferyl alcohol [1]; [11],570 ± 14 nmol/mL
"Cc1cc2nc3c(=O)[nH]c(=O)nc-3n(C[C@H](O)[C@H](O)[C@H](O)COP(=O)(O)O)c2cc1C [FMN, flavin mononucleotide]",E-Sinapyl alcohol in dimer equivalents depleted,E-sinapyl alcohol; [6],570 ± 100 nmol/mL
same,Racemic (±)-syringaresinols,E-sinapyl alcohol; [6],290 ± 40 nmol/mL
same,E-Sinapyl alcohol in dimer equivalents depleted,E-sinapyl alcohol; [7],610 ± 110 nmol/mL
same,Racemic (±)-syringaresinols,E-sinapyl alcohol; [7],340 ± 40 nmol/mL
same,Vmax,E-coniferyl alcohol [2],0.024 ± 0.001 mol s^−1 mol^−1 dirigent protein
same,Km,E-coniferyl alcohol [2],100 ± 10 µM
COc1cc(C[C@H]2C(=O)OC[C@@H]2Cc2ccc(OC)c(OC)c2)ccc1O [(−)-arctigenin],effectiveness against HIV (reverse transcriptase inhibitory activities),HIV,effective against HIV
CC(Cc1ccc(O)c(O)c1)C(C)Cc1ccc(O)c(O)c1 (centres unmarked) [nordihydroguaiaretic acid],effectiveness against HIV (reverse transcriptase inhibitory activities),HIV,effective against HIV
B1,Km,[3],121 ± 5.0 µM
same,Vmax,[3],25.2±0.7 μmol h^−1 mg^−1 of protein
B2,Km,[4],123 ± 6.0 µM
same,Vmax,[4],29.9±0.7 μmol h^−1 mg^−1 of protein
B3,E-Sinapyl alcohol in dimer equivalents depleted,E-sinapyl alcohol; [12],110 ± 10 nmol/mL
same,Racemic (±)-syringaresinols,E-sinapyl alcohol; [12],50 ± 10 nmol/mL
same,(+)-Pinoresinol,E-coniferyl alcohol [1]; [12],55 ± 1 nmol/mL
same,(±)-Dehydro-diconiferyl alcohols,E-coniferyl alcohol [1]; [12],8 ± 1 nmol/mL
same,(±)-Guaiacyl-glycerol 8-O-4′-coniferyl alcohol ethers,E-coniferyl alcohol [1]; [12],5 ± 1 nmol/mL
same,(±)-Pinoresinols,E-coniferyl alcohol [1]; [12],0 nmol/mL
same,E-Coniferyl alcohol in dimer equivalents depleted,E-coniferyl alcohol [1]; [12],61 ± 20 nmol/mL
same,Total dimers,E-coniferyl alcohol [1]; [12],68 ± 3 nmol/mL
same,Vmax,E-coniferyl alcohol [2],0.02 ± 0.02 mol s^−1 mol^−1 dirigent protein
same,Vmax,E-coniferyl alcohol [2]; listed as dirigent protein,0.02±0.02 mol s^−1 mol^−1 dirigent prote
same,Km,E-coniferyl alcohol [2],10000 ± 6000 µM
same,(+)-pinoresinol-forming activity,E-coniferyl alcohol [5]; E-[9-3H]coniferyl alcohol as substrate for one hour,< 5 % of total activity loaded onto the POROS SP-M column
same,(+)-pinoresinol formation (residual oxidizing capacity),"E-coniferyl alcohol [5]; protein by itself, over 10 hours",< 5%
